In the Kinase Knowledgebase extract (Sharma et al. 2016):

What was measured:
[1] = target: PIK3CA (human) (UniProt P42336); experiment: Enzyme Assay
[2] = target: PIK3CD (Human) (UniProt O00329); experiment: Enzyme Assay
[3] = target: PIK3CG (human) (UniProt P48736); experiment: Enzyme Assay
[4] = target: PIK3CA (human) (UniProt P42336); experiment: Cell-Based Assay; settings: rat-1
[5] = target: PIK3CD (Human) (UniProt O00329); experiment: Cell-Based Assay; settings: rat-1
[6] = target: PIK3CG (human) (UniProt P48736); experiment: Cell-Based Assay; settings: u937

Sequence of PIK3CD (Human) (O00329 whole entry, looked up): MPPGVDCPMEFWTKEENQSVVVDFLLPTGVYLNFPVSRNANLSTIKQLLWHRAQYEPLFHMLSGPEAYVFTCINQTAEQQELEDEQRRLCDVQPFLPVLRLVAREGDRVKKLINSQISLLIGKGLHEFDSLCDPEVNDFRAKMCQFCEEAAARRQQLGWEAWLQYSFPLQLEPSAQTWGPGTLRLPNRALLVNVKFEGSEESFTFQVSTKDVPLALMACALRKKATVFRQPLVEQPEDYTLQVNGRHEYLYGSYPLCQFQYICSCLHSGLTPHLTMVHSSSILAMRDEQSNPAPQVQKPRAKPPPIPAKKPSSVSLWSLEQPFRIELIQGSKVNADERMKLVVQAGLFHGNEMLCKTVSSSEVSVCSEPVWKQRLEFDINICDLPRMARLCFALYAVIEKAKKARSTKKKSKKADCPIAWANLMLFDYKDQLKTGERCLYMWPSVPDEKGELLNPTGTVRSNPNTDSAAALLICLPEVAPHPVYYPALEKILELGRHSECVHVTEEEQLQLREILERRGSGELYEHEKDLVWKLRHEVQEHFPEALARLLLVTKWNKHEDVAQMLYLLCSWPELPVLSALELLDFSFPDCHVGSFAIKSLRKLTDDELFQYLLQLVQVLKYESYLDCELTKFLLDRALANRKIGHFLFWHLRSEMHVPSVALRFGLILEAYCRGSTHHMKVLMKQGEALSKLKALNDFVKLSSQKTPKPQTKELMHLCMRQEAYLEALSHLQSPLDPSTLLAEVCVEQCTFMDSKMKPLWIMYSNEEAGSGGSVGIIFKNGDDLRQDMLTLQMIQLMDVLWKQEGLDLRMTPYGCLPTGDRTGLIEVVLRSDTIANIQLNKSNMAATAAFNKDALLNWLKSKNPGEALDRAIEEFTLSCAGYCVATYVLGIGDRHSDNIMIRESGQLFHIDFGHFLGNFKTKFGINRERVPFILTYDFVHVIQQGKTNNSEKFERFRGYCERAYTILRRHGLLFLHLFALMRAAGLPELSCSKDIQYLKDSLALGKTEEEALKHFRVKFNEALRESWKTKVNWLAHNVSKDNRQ
Sequence of PIK3CA (human) (P42336 whole entry, looked up): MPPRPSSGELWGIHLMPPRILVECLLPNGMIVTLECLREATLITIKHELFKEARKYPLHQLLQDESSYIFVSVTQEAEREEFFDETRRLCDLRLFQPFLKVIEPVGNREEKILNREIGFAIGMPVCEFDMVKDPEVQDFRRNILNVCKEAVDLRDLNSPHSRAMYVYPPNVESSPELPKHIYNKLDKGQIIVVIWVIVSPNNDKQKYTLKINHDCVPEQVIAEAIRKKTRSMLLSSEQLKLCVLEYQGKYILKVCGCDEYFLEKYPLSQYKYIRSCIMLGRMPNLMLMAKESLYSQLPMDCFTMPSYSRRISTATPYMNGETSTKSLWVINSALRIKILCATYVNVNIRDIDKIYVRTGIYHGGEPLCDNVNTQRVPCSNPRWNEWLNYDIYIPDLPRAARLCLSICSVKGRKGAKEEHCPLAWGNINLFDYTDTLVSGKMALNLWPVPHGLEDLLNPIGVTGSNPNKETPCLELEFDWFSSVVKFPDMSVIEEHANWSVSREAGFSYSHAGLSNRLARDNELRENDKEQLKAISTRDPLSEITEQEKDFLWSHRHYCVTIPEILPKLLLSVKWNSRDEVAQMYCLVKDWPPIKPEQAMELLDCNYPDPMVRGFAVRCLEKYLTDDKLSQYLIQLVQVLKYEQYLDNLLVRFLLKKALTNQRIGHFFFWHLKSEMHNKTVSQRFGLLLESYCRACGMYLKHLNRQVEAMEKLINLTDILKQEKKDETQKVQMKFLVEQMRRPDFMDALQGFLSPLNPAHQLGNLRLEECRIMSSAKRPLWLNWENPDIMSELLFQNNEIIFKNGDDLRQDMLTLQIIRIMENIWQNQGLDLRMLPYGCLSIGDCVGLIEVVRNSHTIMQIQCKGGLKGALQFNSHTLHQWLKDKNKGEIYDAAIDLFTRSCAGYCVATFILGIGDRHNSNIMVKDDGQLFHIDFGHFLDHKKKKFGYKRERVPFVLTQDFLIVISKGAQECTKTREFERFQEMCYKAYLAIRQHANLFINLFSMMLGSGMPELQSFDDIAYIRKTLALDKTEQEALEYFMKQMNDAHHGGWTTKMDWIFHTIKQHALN
Sequence of PIK3CG (human) (P48736 whole entry, looked up): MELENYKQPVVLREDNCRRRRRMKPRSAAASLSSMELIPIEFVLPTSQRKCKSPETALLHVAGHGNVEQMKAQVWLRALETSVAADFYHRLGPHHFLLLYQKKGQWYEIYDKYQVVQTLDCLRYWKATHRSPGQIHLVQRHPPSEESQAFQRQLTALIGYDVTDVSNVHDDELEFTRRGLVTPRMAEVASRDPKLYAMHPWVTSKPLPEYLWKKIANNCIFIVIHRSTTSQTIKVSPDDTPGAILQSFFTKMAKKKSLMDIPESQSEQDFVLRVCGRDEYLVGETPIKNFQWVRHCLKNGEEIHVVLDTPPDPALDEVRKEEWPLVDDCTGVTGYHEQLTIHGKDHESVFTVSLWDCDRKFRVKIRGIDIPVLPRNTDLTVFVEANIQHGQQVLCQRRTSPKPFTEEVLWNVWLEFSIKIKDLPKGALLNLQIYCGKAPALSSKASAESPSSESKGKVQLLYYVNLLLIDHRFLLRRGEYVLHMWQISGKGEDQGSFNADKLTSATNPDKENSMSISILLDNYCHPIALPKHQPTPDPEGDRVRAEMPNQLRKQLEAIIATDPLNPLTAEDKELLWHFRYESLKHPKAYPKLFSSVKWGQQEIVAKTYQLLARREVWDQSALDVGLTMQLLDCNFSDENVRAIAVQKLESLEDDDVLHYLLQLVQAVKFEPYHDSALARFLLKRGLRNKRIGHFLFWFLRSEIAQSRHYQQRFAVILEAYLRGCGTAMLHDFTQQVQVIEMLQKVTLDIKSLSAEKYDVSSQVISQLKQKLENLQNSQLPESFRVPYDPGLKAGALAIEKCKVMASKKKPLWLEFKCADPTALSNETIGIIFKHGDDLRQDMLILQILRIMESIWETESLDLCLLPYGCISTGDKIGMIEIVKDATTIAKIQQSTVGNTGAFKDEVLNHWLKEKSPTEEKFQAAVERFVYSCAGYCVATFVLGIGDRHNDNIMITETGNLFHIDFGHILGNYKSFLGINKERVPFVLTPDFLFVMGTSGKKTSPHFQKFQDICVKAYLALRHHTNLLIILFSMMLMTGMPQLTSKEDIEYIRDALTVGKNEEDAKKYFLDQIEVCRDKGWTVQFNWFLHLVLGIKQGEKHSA

| Compound | IC50 [1] | IC50 [2] | IC50 [3] | IC50 [4] | IC50 [5] | IC50 [6] |
| --- | --- | --- | --- | --- | --- | --- |
| N#Cc1c(N)ncnc1N1C[C@@H](O)C[C@H]1c1nc2ccc(F)c(Cl)c2c(=O)n1-c1ccccc1 | 2.8 µM | 0.047 µM | 0.99 µM | 8.02 µM | 0.027 µM | 0.026 µM |
| COc1cccc2nc([C@@H]3CCCN3c3ncnc(N)c3C#N)n(-c3ccccc3)c(=O)c12 | > 10 µM | 0.076 µM | 5.2 µM | > 10 µM | > 10 µM | 0.382 µM |
| Cc1nc(N)nc(N2C[C@@H](O)C[C@H]2c2nc3ccc(F)c(F)c3c(=O)n2-c2ccccc2)c1C#N | 0.7 µM | 0.043 µM | 0.097 µM | 7.13 µM | 0.03 µM | 0.033 µM |
| Cc1nc(N)nc(N2C[C@@H](O)C[C@H]2c2nc3cccc(C)c3c(=O)n2-c2ccccc2)c1C#N | 0.16 µM | < 0.003 µM | < 0.003 µM | 0.601 µM | < 0.003 µM | 0.035 µM |
| N#Cc1c(N)ncnc1N1C[C@@H](F)C[C@H]1c1nc2cccc(C(F)(F)F)c2c(=O)n1-c1ccccc1 | 2.4 µM | 0.008 µM | 0.055 µM | 0.766 µM | 0.01 µM | 0.031 µM |
| Cc1nc(N)nc(N2CCC[C@H]2c2nc3cccc(C(F)(F)F)c3c(=O)n2-c2cccnc2)c1C#N | 0.54 µM | 0.024 µM | 0.18 µM | 3.84 µM | 0.027 µM | 0.082 µM |
| CS(=O)(=O)c1c(F)ccc2nc([C@@H]3CCCN3c3ncnc(N)c3C#N)n(-c3ccccc3)c(=O)c12 | 4.5 µM | 0.084 µM | 7.2 µM | > 10 µM | 0.065 µM | > 10 µM |
| Cc1nc(N)nc(N2CCC[C@H]2c2nc3cccc(C(F)(F)F)c3c(=O)n2-c2cccc(F)c2)c1C#N | 0.89 µM | 0.017 µM | 0.082 µM | 4.44 µM | 0.037 µM | 0.164 µM |
| N#Cc1c(N)ncnc1N1CCC[C@H]1c1nc2cccc(C(F)(F)F)c2c(=O)n1-c1cccnc1 | 2.7 µM | 0.075 µM | 0.95 µM | 5.93 µM | 0.098 µM | 0.934 µM |
| Nc1nc(N2C[C@@H](O)C[C@H]2c2nc3cccc(C(F)(F)F)c3c(=O)n2-c2ccccc2)c2ncsc2n1 | 2.5 µM | 0.027 µM | 0.037 µM | 5.31 µM | 0.089 µM | 0.055 µM |
| Nc1nc(N2CSC[C@H]2c2nc3cccc(Cl)c3c(=O)n2-c2ccccc2)c2nc[nH]c2n1 | 2.3 µM | 0.011 µM | 0.023 µM | 6.63 µM | 0.046 µM | 0.119 µM |
| N#Cc1c(N)ncnc1N1CCC[C@H]1c1nc2cccc(F)c2c(=O)n1-c1ccccc1 | 3 µM | 0.019 µM | 0.65 µM | > 10 µM | < 0.003 µM | 0.148 µM |
| N#Cc1c(N)ncnc1N1C[C@@H](O)C[C@H]1c1nc2cccc(C(F)(F)F)c2c(=O)n1-c1cccc(F)c1 | 9.3 µM | 0.082 µM | 0.72 µM | > 10 µM | 0.029 µM | 0.146 µM |
| Cc1nc(N)nc(N2C[C@@H](O)C[C@H]2c2nc3cccc(F)c3c(=O)n2-c2ccccc2)c1C#N | 1.3 µM | 0.018 µM | 0.09 µM | 6.6 µM | 0.024 µM | 0.114 µM |
| Cc1nc(N)nc(N2C[C@@H](F)C[C@H]2c2nc3cccc(C(F)(F)F)c3c(=O)n2-c2ccccc2)c1C#N | 0.59 µM | 0.01 µM | 0.047 µM | 2.06 µM | 0.012 µM | 0.022 µM |
| Cc1nc(N)nc(N2CCC[C@H]2c2nc3cccc(Cl)c3c(=O)n2N2CCOCC2)c1C#N | 0.79 µM | 0.018 µM | 0.071 µM | 1.79 µM | 0.015 µM | 0.027 µM |
| CS(=O)(=O)N[C@H]1C[C@@H](c2nc3cccc(Cl)c3c(=O)n2-c2ccccc2)N(c2ncnc3[nH]cnc23)C1 | 0.3 µM | 0.004 µM | 0.017 µM | > 10 µM | 0.076 µM | 0.148 µM |
| Cc1c(F)ccc2nc([C@@H]3C[C@H](O)CN3c3ncnc(N)c3C#N)n(-c3ccccc3)c(=O)c12 | 2.2 µM | 0.01 µM | 0.37 µM | 2.72 µM | 0.007 µM | 0.331 µM |
| N#Cc1c(N)ncnc1N1C[C@@H](O)C[C@H]1c1nc2cccc(F)c2c(=O)n1-c1ccccc1 | > 10 µM | 0.082 µM | 2.1 µM | > 10 µM | 0.023 µM | 0.709 µM |
| N#Cc1c(N)ncnc1N1CSC[C@H]1c1nc2cccc(Cl)c2c(=O)n1-c1ccccc1 | 2.34 µM | 0.005 µM | 0.129 µM | 8.12 µM | 0.014 µM | > 10 µM |
| Cc1nc(N)nc(N2C[C@@H](O)C[C@H]2c2nc3cccc(Cl)c3c(=O)n2-c2ccccc2)c1C#N | 0.36 µM | 0.012 µM | 0.018 µM | 1.04 µM | 0.004 µM | 0.005 µM |
| O=c1c2c(C(F)(F)F)cccc2nc([C@@H]2C[C@H](O)CN2c2ncnc3[nH]cnc23)n1-c1ccccc1 | 1.4 µM | 0.016 µM | 0.21 µM | 7.22 µM | 0.091 µM | 0.034 µM |
| Cc1nc(N)nc(N2C[C@@H](O)C[C@H]2c2nc3cccc(Cl)c3c(=O)n2C2CC2)c1C#N | 0.698 µM | 0.221 µM | 0.085 µM | 4.23 µM | 0.086 µM | 0.219 µM |
| N#Cc1c(N)ncnc1N1CCC[C@H]1c1nc2cccc(Cl)c2c(=O)n1C1CC1 | 0.56 µM | 0.007 µM | 0.025 µM | 4.02 µM | 0.043 µM | 0.074 µM |
| Cc1ccccc1-n1c([C@@H]2CCCN2c2ncnc(N)c2C#N)nc2cccc(Cl)c2c1=O | 5.21 µM | < 0.003 µM | 0.07 µM | 2.2 µM | 0.013 µM | 0.027 µM |
| CO[C@H]1C[C@@H](c2nc3cccc(C(F)(F)F)c3c(=O)n2N2CCOCC2)N(c2ncnc(N)c2C#N)C1 | > 10 µM | 0.053 µM | 1.9 µM | > 10 µM | 0.117 µM | 1.89 µM |
| N#Cc1c(N)ncnc1N1CCC[C@H]1c1nc2cccc(O)c2c(=O)n1-c1ccccc1 | 1.43 µM | 0.003 µM | 0.11 µM | > 10 µM | 0.015 µM | 0.494 µM |
| O=c1c2c(C(F)(F)F)cccc2nc([C@@H]2C[C@H](F)CN2c2ncnc3[nH]cnc23)n1-c1ccccc1 | 3.6 µM | < 0.003 µM | 0.068 µM | 5.23 µM | 0.033 µM | 0.088 µM |
| N#Cc1c(N)nc(N)nc1N1CCC[C@H]1c1nc2cccc(C(F)(F)F)c2c(=O)n1-c1ccccc1 | 0.29 µM | 0.046 µM | 0.052 µM | 2.37 µM | 0.006 µM | 0.035 µM |
| Nc1nc(N2CCC[C@H]2c2nc3cccc(Cl)c3c(=O)n2-c2cccnc2)c2nc[nH]c2n1 | 1.5 µM | 0.008 µM | 0.024 µM | > 10 µM | 0.077 µM | 0.675 µM |
